BindingDB's records for doi:10.7270/Q2639NCQ (The Scripps Research Institute Molecular Screening Center, 2013)

molecular target: T1, Mitochondrial peptide methionine sulfoxide reductase (Bos taurus, UniProt P54149)
T1 sequence (P54149 whole entry): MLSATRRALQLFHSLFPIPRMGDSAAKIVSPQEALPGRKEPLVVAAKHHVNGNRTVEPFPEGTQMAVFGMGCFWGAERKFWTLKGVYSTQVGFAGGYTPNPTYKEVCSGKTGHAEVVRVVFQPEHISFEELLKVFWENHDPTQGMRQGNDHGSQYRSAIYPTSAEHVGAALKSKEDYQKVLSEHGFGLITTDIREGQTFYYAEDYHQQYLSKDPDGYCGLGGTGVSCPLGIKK

| Compound | IC50 [µM] |
| --- | --- |
| CCOC(=O)C1CCCN(C(=O)c2cnn3c(C(F)F)cc(-c4ccc(C)cc4)nc23)C1 (stereo not drawn) [1-[7-(difluoromethyl)-5-(p-tolyl)pyrazolo[1,5-a]pyrimidine-3-carbonyl]nipecotic acid ethyl ester] | > 155 |
| Cc1nn2c(=O)cc(CSc3ccccc3NC(=O)c3ccccc3)nc2s1 [N-[2-[(2-methyl-5-oxo-[1,3,4]thiadiazolo[3,2-a]pyrimidin-7-yl)methylsulfanyl]phenyl]benzamide] | > 155 |
| CC(Nc1cc(N2CCN(S(C)(=O)=O)CC2)ccc1[N+](=O)[O-])c1ccccc1 (stereo not drawn) [5-[4-(methylsulfonyl)-1-piperazinyl]-2-nitro-N-(1-phenylethyl)aniline] | > 155 |
| NC(=O)COc1ccc2oc(=O)cc(-c3cc4ccccc4o3)c2c1 [SMR000641652] | > 155 |
| COC(=O)/C(=C1/Oc2ccc(C)cc2S1)C(F)(F)F [methyl (2E)-3,3,3-trifluoro-2-(5-methyl-1,3-benzoxathiol-2-ylidene)propanoate] | > 155 |
| CCOc1cc(S(=O)(=O)NC2CC2)c(OCC)cc1-n1cnnn1 [SMR000123810] | > 155 |
| O=C1N=C(N2C=CC(c3ccncc3)C=C2)C(=CN=NC(=O)c2ccccc2)S1 | > 155 |
| Cc1ccc(S(=O)(=O)NCCNc2ccc([N+](=O)[O-])cc2C(F)(F)F)cc1 [4-methyl-N-(2-{[4-nitro-2-(trifluoromethyl)phenyl]amino}ethyl)benzenesulfonamide] | > 155 |
| Cc1ccc(/C=C/C(=O)Nc2nccs2)o1 [SMR000261703] | > 155 |
| Cc1ccccc1Nc1c(N)c(=O)oc2ccccc12 [MLS000563389] | > 155 |
| O=C(O)Cc1sc(N=NC=CCc2ccccc2)nc1O [SMR000236709] | 118 |
| CCCCCc1c(-c2cccc(OC)c2)ncn1CCc1ccccc1OC [4-(3-methoxyphenyl)-1-[2-(2-methoxyphenyl)ethyl]-5-pentyl-imidazole;2,2,2-tris(fluoranyl)ethanoic acid] | > 155 |
| CCOC(=O)c1cc2c(ccc3ccccc32)oc1=O [3-oxo-2-benzo[f][1]benzopyrancarboxylic acid ethyl ester] | > 155 |
| COC(=O)COc1ccc2oc(=O)cc(-c3cc4ccccc4o3)c2c1 [MLS001167555] | > 155 |
| CSc1nc2nc3c(c-2c2nn[nH]n12)CCCC3 [MLS000071223] | > 155 |
| CNS(=O)(=O)c1cccc(C(=O)OCC(=O)c2cc3ccccc3o2)c1 [SMR000364126] | > 155 |
| Cc1ccnc(N2C(=O)c3cccc4c([N+](=O)[O-])ccc(c34)C2=O)c1 [2-(4-Methyl-pyridin-2-yl)-6-nitro-benzo[de]isoquinoline-1,3-dione] | > 155 |
| Cc1ccc(C)c(NC(=O)/C(C#N)=C/c2ccc[nH]2)c1 [SMR000678612] | > 155 |
| COc1ccc(-c2cc(=O)oc3c(C)c(OC(C)C(C)=O)ccc23)cc1 (stereo not drawn) [4-(4-methoxyphenyl)-8-methyl-7-(3-oxobutan-2-yloxy)-1-benzopyran-2-one] | > 155 |
| COc1cccc(/C=N/n2c(CO)nc3ccccc32)c1OC [[1-[(E)-(2,3-dimethoxyphenyl)methylideneamino]-2-benzimidazolyl]methanol] | > 155 |
| O=C(O)c1cccc(NS(=O)(=O)c2ccc3c(c2)C(=O)c2ccccc2C3=O)c1 [3-[[9,10-bis(oxidanylidene)anthracen-2-yl]sulfonylamino]benzoic acid] | > 155 |
| O=C1C(Cl)=C(NCCCN2CCOCC2)C(=O)N1CCc1ccccc1 [3-chloro-4-{[3-(4-morpholinyl)propyl]amino}-1-(2-phenylethyl)-1H-pyrrole-2,5-dione] | > 155 |
| COc1cccc2cc(-c3cc(=O)oc4ccc(O)cc34)oc12 [SMR000543646] | > 155 |
